Experimental findings from patent US10004701B2, “Methods and compositions for treating infection” (UNIVERSITY OF ROCHESTER, priority 2012, dated 2018) are described below.

What all share (assay): AK assay 384-well format, Prestwick library screening
The subject of one test is E. faecium. The format is cell-based, Enterococcus faecium. Conditions: 50 μM final drug concentration; for fold induction at 50 µM: Enterococcus faecium, 3 h.
Test [1] relates to S. aureus strain USA300-0114. The format is cell-based, Staphylococcus aureus. Particulars: 50 μM final drug concentration; for fold induction at 50 µM: Staphylococcus aureus, USA300, 3 h.
A further test relates to K. pneumoniae. The format is cell-based, Klebsiella pneumoniae. Particulars: 50 μM final drug concentration; for fold induction at 50 µM: Klebsiella pneumoniae, 3 h.
Test [2] relates to A. baumannii strain 98-37-09. The format is cell-based, Acinetobacter baumannii. Conditions: 50 μM final drug concentration; for fold induction at 50 µM: Acinetobacter baumannii, 983709, 3 h.
The subject of another test is P. aeruginosa. The format is cell-based, Pseudomonas aeruginosa. Conditions: 50 μM final drug concentration; for fold induction at 50 µM: Pseudomonas aeruginosa, 3 h.
A further test concerns E. cloacae. The format is cell-based, Enterobacter cloacae. Conditions: 50 μM final drug concentration; for fold induction at 50 µM: Enterobacter cloacae, 3 h.
The subject of the next test is E. coli. The format is cell-based, Escherichia coli. Conditions: 50 μM final drug concentration; for fold induction at 50 µM: Escherichia coli, 3 h.
Setting [3] is: planktonic, cutoff for positive 3-fold increase, read-out: AK-based Prestwick Library Screening Results, E. faecium (fold increase in extracellular AK activity).
[4] abbreviates: planktonic, cutoff for positive 3-fold increase, read-out: AK-based Prestwick Library Screening Results, S. aureus (fold increase in extracellular AK activity).
Where [5] appears, read: planktonic, cutoff for positive 3-fold increase, read-out: AK-based Prestwick Library Screening Results, K. pneumoniae (fold increase in extracellular AK activity).
Setting [6] is: planktonic, cutoff for positive 3-fold increase, read-out: AK-based Prestwick Library Screening Results, A. baumannii (fold increase in extracellular AK activity).
[7] abbreviates: planktonic, cutoff for positive 3-fold increase, read-out: AK-based Prestwick Library Screening Results, P. aeruginosa (fold increase in extracellular AK activity).
Where [8] appears, read: planktonic, cutoff for positive 3-fold increase, read-out: AK-based Prestwick Library Screening Results, E. cloacae (fold increase in extracellular AK activity).
Where [9] appears, read: planktonic, cutoff for positive 3-fold increase, read-out: AK-based Prestwick Library Screening Results, E. coli (fold increase in extracellular AK activity).
Where [10] appears, read: planktonic E. faecium, cutoff for positive-scoring molecules 3-fold increase, read-out: AK-based Prestwick Library Screening Results, E. faecium (increase in extracellular AK activity).
Where [11] appears, read: planktonic S. aureus, cutoff for positive-scoring molecules 3-fold increase, read-out: AK-based Prestwick Library Screening Results, S. aureus (increase in extracellular AK activity).
[12] abbreviates: planktonic K. pneumoniae, cutoff for positive-scoring molecules 3-fold increase, read-out: AK-based Prestwick Library Screening Results, K. pneumoniae (increase in extracellular AK activity).
Setting [13] is: planktonic A. baumannii, cutoff for positive-scoring molecules 3-fold increase, read-out: AK-based Prestwick Library Screening Results, A. baumannii (increase in extracellular AK activity).
Where [14] appears, read: planktonic P. aeruginosa, cutoff for positive-scoring molecules 3-fold increase, read-out: AK-based Prestwick Library Screening Results, P. aeruginosa (increase in extracellular AK activity).
The mark [15] stands for this setting: planktonic E. cloacae, cutoff for positive-scoring molecules 3-fold increase, read-out: AK-based Prestwick Library Screening Results, E. cloacae (increase in extracellular AK activity).
[16] abbreviates: planktonic E. coli, cutoff for positive-scoring molecules 3-fold increase, read-out: AK-based Prestwick Library Screening Results, E. coli (increase in extracellular AK activity).

Molecules are shown by their SMILES. Structures can show the parent of a compound that is named as a salt. Where two headings read alike, the source gives them in different places.

As for `C=CCSCC1Nc2cc(Cl)c(S(N)(=O)=O)cc2S(=O)(=O)N1` (centres unmarked) [Althiazide], the fold induction at 50 µM was determined as 1 in the test on E. faecium (setting [3]); 0.4 in test [1] (setting [4]); 0.4 in the test with K. pneumoniae (setting [5]); 0.4 in test [2] (setting [6]); 0.4 with P. aeruginosa (setting [7]); 0.3 with E. cloacae (setting [8]). Besides, the fold induction at 50 µM in the test with E. coli (setting [9]) stood at 0.4.

Take `Cc1ccc(S(=O)(=O)NC(=O)NN2CCCCCC2)cc1` [Tolazamide]: the fold induction at 50 µM was determined as 1 in the test with E. faecium (setting [3]); 1 in test [1] (setting [4]); 1.4 in the test on K. pneumoniae (setting [5]); 1.2 in test [2] (setting [6]); 1.4 with P. aeruginosa (setting [7]); 1.6 with E. cloacae (setting [8]). Also, the fold induction at 50 µM with E. coli (setting [9]) was determined as 1.5.

As for `CC(C)(O/N=C(\C(=O)N[C@@H]1C(=O)N2C(C(=O)[O-])=C(C[n+]3ccccc3)CS[C@H]12)c1csc(N)n1)C(=O)O` [Ceftazidime pentahydrate], the fold induction at 50 µM in the test on E. faecium (setting [10]) turned out to be 0.9; in test [1] (setting [11]) it was 0.4; in the test on K. pneumoniae (setting [12]), 3.2; in test [2] (setting [13]) it was 0.5; in the test with P. aeruginosa (setting [14]), 7.8; with E. cloacae (setting [15]), 12.9. Further, the fold induction at 50 µM with E. coli (setting [16]) was determined as 11.5.

Take `CN1CCc2cccc3c2[C@H]1Cc1ccc(O)c(O)c1-3.CN1CCc2cccc3c2[C@H]1Cc1ccc(O)c(O)c1-3.Cl.Cl.O`: the “AK-based Prestwick Library Screening Results, E. faecium (increase in extracellular AK activity)” value in the test on E. faecium (384-well format, […]) was 0.8. Besides, the “AK-based Prestwick Library Screening Results, S. aureus (increase in extracellular AK activity)” value in test [1] (384-well format, […]) was 0.9. Moreover, the “AK-based Prestwick Library Screening Results, K. pneumoniae (increase in extracellular AK activity)” value in the test on K. pneumoniae (384-well format, […]) was determined as 0.8. The “AK-based Prestwick Library Screening Results, A. baumannii (increase in extracellular AK activity)” value in test [2] (384-well format, […]) is 0.8. The “AK-based Prestwick Library Screening Results, P. aeruginosa (increase in extracellular AK activity)” value in the test with P. aeruginosa (384-well format, […]) turned out to be 0.6. For the same molecule, in the test on E. cloacae (384-well format, […]), the “AK-based Prestwick Library Screening Results, E. cloacae (increase in extracellular AK activity)” value was found to be 0.9. In addition, the “AK-based Prestwick Library Screening Results, E. coli (increase in extracellular AK activity)” value in the test with E. coli (384-well format, […]) is reported as 0.8.

As for `C[C@@H]1NCCc2cc(O)c(O)cc21` [Salsolinol hydrobromide], the fold induction at 50 µM in the test on E. faecium (setting [3]) came out at 1; in test [1] (setting [4]), 1.1; in the test on K. pneumoniae (setting [5]), 1.2; in test [2] (setting [6]), 1.2; in the test on P. aeruginosa (setting [7]), 1.1; in the test with E. cloacae (setting [8]), 1.5. In addition, the fold induction at 50 µM in the test on E. coli (setting [9]) came out at 1.2.

Consider `Cc1ccc(/C(=C\CN2CCCC2)c2ccccn2)cc1` [Triprolidine hydrochloride], for which the fold induction at 50 µM stood at 1 in the test on E. faecium (384-well format, cutoff for positive-scoring molecules 3-fold increase, read-out: AK-based Prestwick Library Screening Results, E. faecium (increase in extracellular AK activity)); 0.6 in test [1] (384-well format, cutoff for positive-scoring molecules 3-fold increase, read-out: AK-based Prestwick Library Screening Results, S. aureus (increase in extracellular AK activity)); 0.7 with K. pneumoniae (384-well format, cutoff for positive-scoring molecules 3-fold increase, read-out: AK-based Prestwick Library Screening Results, K. pneumoniae (increase in extracellular AK activity)); 0.9 in test [2] (384-well format, cutoff for positive-scoring molecules 3-fold increase, read-out: AK-based Prestwick Library Screening Results, A. baumannii (increase in extracellular AK activity)); 1 with P. aeruginosa (384-well format, cutoff for positive-scoring molecules 3-fold increase, read-out: AK-based Prestwick Library Screening Results, P. aeruginosa (increase in extracellular AK activity)); 1 in the test on E. cloacae (384-well format, cutoff for positive-scoring molecules 3-fold increase, read-out: AK-based Prestwick Library Screening Results, E. cloacae (increase in extracellular AK activity)). The fold induction at 50 µM in the test with E. coli (384-well format, cutoff for positive-scoring molecules 3-fold increase, read-out: AK-based Prestwick Library Screening Results, E. coli (increase in extracellular AK activity)) is 1.

With `CC(C)(C)NCC(O)COc1cccc2c1CC(O)C(O)C2` (centres unmarked) [Nadolol], the fold induction at 50 µM in the test with E. faecium (planktonic, cutoff for positive-scoring molecules 3-fold increase, read-out: AK-based Prestwick Library Screening Results, E. faecium (fold increase in extracellular AK activity)) worked out at 0.9; in test [1] (planktonic, cutoff for positive-scoring molecules 3-fold increase, read-out: AK-based Prestwick Library Screening Results, S. aureus (fold increase in extracellular AK activity)) it was 0.7; in the test with K. pneumoniae (planktonic, cutoff for positive-scoring molecules 3-fold increase, read-out: AK-based Prestwick Library Screening Results, K. pneumoniae (fold increase in extracellular AK activity)) it was 0.6; in test [2] (planktonic, cutoff for positive-scoring molecules 3-fold increase, read-out: AK-based Prestwick Library Screening Results, A. baumannii (fold increase in extracellular AK activity)) it was 0.7; in the test on P. aeruginosa (planktonic, cutoff for positive-scoring molecules 3-fold increase, read-out: AK-based Prestwick Library Screening Results, P. aeruginosa (fold increase in extracellular AK activity)) it was 0.6; in the test with E. cloacae (planktonic, cutoff for positive-scoring molecules 3-fold increase, read-out: AK-based Prestwick Library Screening Results, E. cloacae (fold increase in extracellular AK activity)) it was 0.8. In the test with E. coli (planktonic, cutoff for positive-scoring molecules 3-fold increase, read-out: AK-based Prestwick Library Screening Results, E. coli (fold increase in extracellular AK activity)), the fold induction at 50 µM was found to be 0.8.

In the case of `CNCCCN1c2ccccc2CCc2ccccc21` [Desipramine hydrochloride], the fold induction at 50 µM in the test with E. faecium (setting [10]) turned out to be 0.8; in test [1] (setting [11]), 0.7; with K. pneumoniae (setting [12]), 0.7; in test [2] (setting [13]), 0.7; with P. aeruginosa (setting [14]), 0.9; in the test with E. cloacae (setting [15]), 0.8. Further, the fold induction at 50 µM in the test with E. coli (setting [16]) was found to be 0.9.

For the molecule `Cc1cc(N)c2ccccc2[n+]1CCCCCCCCCC[n+]1c(C)cc(N)c2ccccc21` [Dequalinium dichloride], the fold induction at 50 µM in the test on E. faecium (setting [3]) came out at 1.1; in test [1] (setting [4]) it was 1.2; in the test on K. pneumoniae (setting [5]) it was 1.6; in test [2] (setting [6]), 3.2; in the test with P. aeruginosa (setting [7]), 2.3; in the test on E. cloacae (setting [8]) it was 1.8. Besides, in the test on E. coli (setting [9]), the fold induction at 50 µM was 3.

For the molecule `CC(=O)N(CC(O)CN(C(C)=O)c1c(I)c(C(=O)NCC(O)CO)c(I)c(C(=O)NCC(O)CO)c1I)c1c(I)c(C(=O)NCC(O)CO)c(I)c(C(=O)NCC(O)CO)c1I` (centres unmarked) [Iodixanol], the fold induction at 50 µM was 1.1 in the test on E. faecium ([…], read-out: AK-based Prestwick Library Screening Results, E. faecium (fold increase in extracellular AK activity)); 1.3 in test [1] ([…], read-out: AK-based Prestwick Library Screening Results, S. aureus (fold increase in extracellular AK activity)); 1 in the test on K. pneumoniae (cutoff for positive-scoring molecules 3-fold increase, read-out: AK-based Prestwick Library Screening Results, K. pneumoniae (fold increase in extracellular AK activity)); 1 in test [2] (cutoff for positive-scoring molecules 3-fold increase, read-out: AK-based Prestwick Library Screening Results, A. baumannii (fold increase in extracellular AK activity)); 1.2 in the test on P. aeruginosa ([…], read-out: AK-based Prestwick Library Screening Results, P. aeruginosa (fold increase in extracellular AK activity)); 1.5 with E. cloacae ([…], read-out: AK-based Prestwick Library Screening Results, E. cloacae (fold increase in extracellular AK activity)). Moreover, in the test with E. coli ([…], read-out: AK-based Prestwick Library Screening Results, E. coli (fold increase in extracellular AK activity)), the fold induction at 50 µM is 1.3.

Regarding `N=C(N)NC(=O)Cc1c(Cl)cccc1Cl` [Guanfacine hydrochloride], the fold induction at 50 µM in the test on E. faecium (setting [10]) worked out at 1.1; in test [1] (setting [11]) it was 0.6; in the test on K. pneumoniae (setting [12]), 0.5; in test [2] (setting [13]), 0.7; in the test with P. aeruginosa (setting [14]), 0.7; in the test on E. cloacae (setting [15]), 0.9. Besides, the fold induction at 50 µM in the test on E. coli (setting [16]) amounted to 0.8.
